Drawing on ChEMBL document CHEMBL2390877, “Structural requirements for inhibitory effects of bisphenols on the activity of the sarco/endoplasmic reticulum calcium ATPase” (Bioorg Med Chem, 2013), this text covers IC50, inhibition and Drug uptake for 26 compounds.

A word on the IC50: it is the concentration needed to halve the response being measured.

Data set [1] is described as follows: Inhibition of rabbit skeletal muscle sarco/endoplasmic reticulum calcium ATPase assessed as inhibition of ATP hydrolysis by spectrophotometric analysis. Also noted: species or system Oryctolagus cuniculus.
The species named for a further data set is Homo sapiens. The experiment in a line: Inhibition of sarco/endoplasmic reticulum calcium ATPase in human GM08333 cells assessed as inhibition of calcium ion uptake at 50 uM measured for 1 min by Fura-2AM staining assay. In kind it is cell-based.
Another data set has as its system Serum. The experiment in a line: Drug uptake in human serum. It counts as ADME, cell-free.

The source made the active and inactive calls. No cut-off for these calls is given here.

As to `CC(CCC(=O)O)(c1cc(Cl)c(O)c(Cl)c1)c1cc(Cl)c(O)c(Cl)c1`, the IC50 in data set [1] (read-out: IC50) turned out to be 25 µM. For the compound `Oc1ccc(Cc2ccc(O)cc2)cc1`, the IC50 result in data set [1] is recorded as “Not Active”. Consider `Cc1cc(C(C)(C)c2cc(C)c(O)c(C)c2)cc(C)c1O`, for which the IC50 in data set [1] (read-out: IC50) is 2.6 µM. On the same count and under the same terms, under `Cc1cc(C(C)(C)c2ccc(O)c(C)c2)ccc1O` stands 24 µM; under `CC(C)(C)c1cc(Cc2cc(C(C)(C)C)c(O)c(C(C)(C)C)c2)cc(C(C)(C)C)c1O`, 16 µM. For `CC(C)(c1ccc(O)c(C2CCCCC2)c1)c1ccc(O)c(C2CCCCC2)c1`, the IC50 in data set [1] (read-out: IC50) turned out to be 94 µM. The inhibition entry in the data set listed under Homo sapiens was “Active”.

Take `CC(C)(c1cc(Br)c(O)c(Br)c1)c1cc(Br)c(O)c(Br)c1`: in data set [1] (read-out: IC50), the IC50 was 4.7 µM. This compound also displayed a Drug uptake in the data set with Serum of 0.3 µM. In the data set filed under Homo sapiens, the inhibition entry is “Active”.

Regarding `O=C(c1ccc(O)cc1)c1ccc(O)cc1`, in data set [1] (read-out: IC50), the IC50 came out at 200 µM. For `Nc1cc(C(c2ccc(O)c(N)c2)(C(F)(F)F)C(F)(F)F)ccc1O`, the IC50 result in data set [1] is on record as “Not Active”. With `CC(c1ccc(O)cc1)c1ccc(O)cc1`, the IC50 in data set [1] (read-out: IC50) was found to be 90 µM.

Regarding `Oc1ccc(C2(c3ccc(O)cc3)CCCCC2)cc1`, in data set [1] (read-out: IC50), the IC50 is 27 µM. Consider `Oc1c(Cl)cc(Cl)c(Cl)c1Cc1c(O)c(Cl)cc(Cl)c1Cl` [HEXACHLOROPHENE], for which the IC50 in data set [1] (read-out: IC50) is 4 µM. Also, the inhibition result in the data set listed under Homo sapiens is “Active”. For the compound `Nc1ccc(C(c2ccc(N)cc2)(C(F)(F)F)C(F)(F)F)cc1`, the IC50 entry in data set [1] is reported as “Not Active”. On to `CC(C)c1cc(C(C)(C)c2ccc(O)c(C(C)C)c2)ccc1O`, for which the IC50 in data set [1] (read-out: IC50) amounted to 3.4 µM.

Take `Oc1ccc(C(c2ccc(O)cc2)(C(F)(F)F)C(F)(F)F)cc1`: the IC50 entry in data set [1] was “Not Active”. Turning to `CC(C)(c1cc(N)c(O)c(N)c1)c1cc(N)c(O)c(N)c1`, the IC50 entry in data set [1] is “Not Active”.

For `Cc1ccc(O)c(Cc2cc(C)ccc2O)c1`, the IC50 in data set [1] (read-out: IC50) amounted to 300 µM. Take `CC(C)(c1cc(Br)c(OCCO)c(Br)c1)c1cc(Br)c(OCCO)c(Br)c1`: the IC50 entry in data set [1] was “Not Active”.

With `C=CCc1cc(C(C)(C)c2ccc(O)c(CC=C)c2)ccc1O`, in data set [1] (read-out: IC50), the concentration for half-maximal inhibition (IC50) came to 2.2 µM. In the case of `Nc1ccc(C2(c3ccc(N)cc3)CCCCC2)cc1`, the IC50 result in data set [1] was “Not Active”. `Oc1c(F)cc(C(c2cc(F)c(O)c(F)c2)(C(F)(F)F)C(F)(F)F)cc1F`: the IC50 in data set [1] (read-out: IC50) was found to be 2.8 µM.

As to `CC(C)(c1cc(Cl)c(O)c(Cl)c1)c1cc(Cl)c(O)c(Cl)c1`, in data set [1] (read-out: IC50), the IC50 is 5.5 µM. In addition, in the data set filed under Homo sapiens, the inhibition result was “Active”. Take `CC(C)(c1ccc(O)cc1)c1ccc(O)cc1` [BISPHENOL A]: the IC50 in data set [1] (read-out: IC50) was 140 µM.

As for `Oc1c(Cl)cc(Cl)cc1Cc1cc(Cl)cc(Cl)c1O`, in data set [1] (read-out: IC50), the IC50 turned out to be 31 µM. Further, the inhibition entry in the data set listed under Homo sapiens is “Active”. As for `CC(C)(c1ccc(O)c(-c2ccccc2)c1)c1ccc(O)c(-c2ccccc2)c1`, the IC50 in data set [1] (read-out: IC50) came to 91 µM. Besides, the inhibition result in the data set filed under Homo sapiens is “Active”.

Take `CC(C)(c1cc(Br)c(OCC2CO2)c(Br)c1)c1cc(Br)c(OCC2CO2)c(Br)c1` (stereo not drawn): the IC50 result in data set [1] was “Not Active”.
